Values quoted from earlier work in patent publication US20240165069A1, “METHODS FOR TREATING DYSGEUSIA AND OTHER LINGERING SYMPTOMS ASSOCIATED WITH SEVERE ACUTE RESPIRATORY SYNDROME CORONAVIRUS 2 INFECTIONADN CORONAVIRUS DISEASE 2019” (Nocendra, Inc., priority 2021, published 2024).

Test system: oral inflammation
Details: Phase 1 trial

For `CCCCC[C@@H](O)/C=C/c1ccccc1/C=C/[C@@H](O)[C@@H](O)CCCC(=O)O` [BLXA4, 9,12-benzo-lipoxin A4], the safety profile (50 subjects receiving drug, oral topical mouth rinse, versus placebo mouth rinse) is given as “indistinguishable from placebo mouth rinse in safety profile”, the “efficacy (reversal of inflammation)” value (oral topical mouth rinse, not powered for efficacy, trends only) is given as “trends in the efficacy data suggested reversal of inflammation” and the “pro-resolving lipid mediator shift in serum” value (topical BLXA4, serum of the subjects) is given as “elicited a pro-resolving lipid mediator shift in the serum”.
